Patent US20260327211A1, “MODULATORS OF A POTASSIUM CHANNEL AND OF TRPV1 CHANNEL AND USES THEREOF” (Bsense Bio Therapeutics Ltd., priority 2023, published 2026)
“And” between values parts separate entries of the source, which are not always exact repeats. Equal entries are not always repeated.

Key:
[1] = Log D, 1-octanol/buffer shake flask; assay type: physicochemical; conditions: 1-octanol/phosphate buffer, pH 7.4; read-out: LogD
Description: The Log D assay was a miniaturized 1-octanol/buffer shake flask method followed by LC/MS/MS analysis, as follows.
The test compounds or control compounds Nadolol, Chlorpromazine Hydrochloride and Propranolol Hydrochloride were dissolved in 100% DMSO to obtain 10 mM solutions, which were transferred to 96-well polypropylene cluster tubes; 2 μL/well. 1-octanol saturated with 0.1 M phosphate buffer (149 μL/well) and 0.1 M phosphate buffer saturated with 1-octanol (149 μL/well) were added to the tubes, respectively, and each tube was vigorously mixed for 2 minutes and then shaked at a speed of 800 rpm at room temperature for 1 hour, followed by centrifugation at 4000 rpm for 5 minutes at room temperature. Thereafter, for the test compounds and the Chlorpromazine Hydrochloride and Propranolol Hydrochloride, the sample of the buffer layer was diluted by a factor of 50-fold and the sample of 1-octanol layer was diluted by a factor of 2000-fold with internal standard (IS) solution. For Nadolol, the sample of the buffer layer was diluted by a factor of 1000-fold and the sample of 1-octanol layer was diluted by a factor of 400-fold with internal standard (IS) solution. The samples were analyzed using a triple quadrupole mass spectrometer. Peak areas were corrected by dilution factors and embedded internal standard, and the ratio of the corrected peak areas was used to calculate the Log D value. The Log D value for each compound will be calculated by the following equation: […]

[2] = Human liver microsome metabolic stability; assay type: in vitro ADME; conditions: for half-life at 1 µM: human, liver microsomes, human liver microsomes, read-out: HLM T1/2
Excerpt: Liver microsomes which are subcellular particles derived from endoplasmic reticulum of hepatic cells were used for evaluating the tested compounds. These particles are rich in drug metabolizing enzymes, including the cytochrome p-450 family. Liver microsomes are a recommended test system for various in vitro drug metabolism and pharmacokinetics (DMPK) studies. CLint values lower than […] are considered suitable for drug development.
Liver Microsome Metabolic Stability Assay (NADPH): The liver microsome stability assay was evaluated through pre-incubation with HLMs. A liver microsome mixture (pooled from multiple donors) at a concentration of 0.5 mg/mL, and the test compound at a concentration of 1 μM, were warmed in the presence of a NADPH regenerating system (about 1.0 mM) at 37° C. Positive controls, including testosterone (a CYP3A4 substrate), propafenone (a CYP2D6 substrate), and diclofenac (a CYP2C9) substrate, were concurrently incubated with the HLMs, in the presence of the NADPH regenerating system (1.0 mM). Samples were extracted during incubation at multiple intervals: 0, 5, 15, 30, 45 and 60 minutes. To terminate the reactions, the samples were promptly mixed with cooled acetonitrile that included an internal standard (IS). An additional compound was incubated with the HLMs in the absence of the NADPH regeneration system, from which a sample was taken at the 60-minute interval.
The clearance of the test compound in the samples was subsequently analyzed by LC-MS/MS based on the peak area ratios of the analyte to the IS.
The following equation was used to calculate the microsome clearance: […]
Liver weight: 40 grams/kg, 30 grams/kg, 32 grams/kg, 20 grams/kg and 88 grams/kg, for rat, monkey, dog, human and mouse, respectively.

[3] = Bidirectional permeability in Caco-2 cells; assay type: in vitro ADME, human; conditions: human, Caco-2, pH 7.4, 2.00 μM
Description: Cell culture: Caco-2 cells (ATCC) were seeded onto polycarbonate (PC) membranes in 96-well insert plates. The cells were cultured in media for 21-28 days prior to performing the transport assays.
Validation of monolayer integrity: Once the Caco-2 cells formed a confluent monolayer, their integrity was evaluated using a Lucifer yellow rejection assay. The monolayer integrity was further evaluated by measuring, in duplicate wells, the unidirectional (A→B) permeability of nadolol (a low permeability marker) and metoprolol (a high permeability marker), as well as bidirectional permeability of digoxin (a P-glycoprotein substrate marker).
Assay: The compounds were assayed under bidirectional transport conditions (A→B and B→A) at a concentration of 2.00 μM (with DMSO≤1.0%), using a transport buffer composed of HBSS containing 10.0 mM HEPES, pH 7.40±0.05. The incubation was carried out at 37° C., with 5.0% CO2 and relatively saturated humidity for 2 hours.
The dosing solution was spiked and mixed with the transport buffer and a Stop Solution (containing an internal standard (IS)) to create a T0 sample.
Sample analysis: Following the incubation, all of the samples were analyzed using LC-MS/MS. The concentrations of the test compounds were expressed as peak area ratios of the analytes versus the IS.

[4] = Metabolite identification (Met-ID), human hepatocytes; assay type: in vitro ADME; conditions: human hepatocytes
Description: Cell culture and incubation: Cryopreserved hepatocyte cells, from human and rat sources, were purchased from commercial sources or in-house production, and were cultured in Williams' Medium E supplemented with glutamine and HEPES, in a humidified 5% CO2 incubator at 37° C., to a cell density of […]. Then, solutions of test compounds at a concentration of 10 μM, or 7-Ethoxycoumarin, as a positive control, at a concentration of 30 μM, in Eagle's Minimum Essential Medium, Catalog No. 30-2003 (ATCC) supplemented with 20% fetal bovine serum, were introduced and the mixture was incubated for 120 minutes, or other specified time points.
The samples were analyzed for metabolites using an LC-MS method developed on […] and PDA systems. Comparative analyses of mass spectra and ion fragmentation between the parent compound and its metabolites were carried out, and metabolic profiling was determined using the mass spectrometric and/or PDA (UV) response. Hypothetical structures of metabolites and their metabolic pathways were proposed.

[5] = test system: CHO-K1 cells; assay: In vitro micronucleus; assay type: cell-based; conditions: hamster
Description: (§1) The micronucleus assay was performed according to the regulatory guidelines. In brief, CHO-K1 cells were plated at 10000 cells/well in 3 plates and incubated In CHO-K1 growth medium (containing F12K, 10% FBS and 1% PS) overnight.
(§2) As a control for the S9 treatment, plate No. 1, cells were treated with cyclophosphamide as a positive control, for 3 hours. For plate No. 2, without S9 treatment, cells were treated with mitomycin C as a positive control, compounds for 3 hours, and for plate No. 3, without S9 treatment, cells were treated with bleomycin sulfate as a positive control continuously for 24 hours.
(§3) On the following day, 6 μg/mL of cytochalasin B were added to each well and plates were further incubated overnight. In the day after medium was replaced with a combined 10 μg/mL Hoechst dye solution and 0.5 μM calcein-AM in 100 μL warm DPBS for 30 minutes and the plates were scanned using CQ1 high-content analysis system.

[6] = In vitro micronucleus; assay type: cell-based; conditions: hamster, cho-k1 cells
Description: as §1, §2, §3

[7] = test system: Spared Nerve Injury (SNI) rats; assay: Spared Nerve Injury (SNI) model, von Frey; assay type: in vivo, rat; conditions: rat, in vivo
Description: All animal experiments were carried out according to the Guide for the Care and Use of Laboratory Animals (2011 edition) and approved by the Israel National Institutional Animal Care and Use Committee (IACUC). Young adult male SD rats (Envigo RMS, Israel), were used for in vivo efficacy: Spared Nerve Injury (SNI), Distal Tibial Injury (DTI) and Post-operative Pain (POP), 200-220 grams, Chronic Post-Ischemia Pain (CPIP) 275-325 grams, Monosodium iodoacetate-induced osteoarthritis (MIA-OA) 180-220 grams; for in vivo safety: 200-250 grams at study initiation. […] The health status of the animals used in this study was examined upon their arrival. Only animals in good health were acclimatized to laboratory conditions and were used in the studies. All studies were performed following at least five days of animal acclimation. During acclimation and throughout the entire study duration, animals were housed within a limited-access rodent facility and kept in groups with a maximum of 2-3 rats per polypropylene cage. The cages were fitted with solid bottoms and filled with sterile wood shavings as bedding material. Animals were provided ad libitum with a commercial, sterile rodent diet and had free access to drinking water that was supplied to each cage via polyethylene bottles with stainless steel sipper tubes. A feed lot analysis of the diet batch used in the study was included in the archives with the study data. Water was monitored periodically. Plastic cylinders for playing and hiding and wooden balls or sticks were added to the cages for environmental enrichment.
SNI: The SNI procedure consisted of ligating and dissecting the tibial and common peroneal nerves, thus sparing the sural nerve. Prior to surgery, a dose of 0.03 mg/kg buprenorphine (Temgesic®) was administered to animals as a prophylaxis to alleviate the operative and postoperative pain unrelated to neuropathy. Next, animals were anesthetized with a combination of medetomidine/ketamine sodium IP. While under anesthesia a medio caudal incision of 4-5 mm parallel to the left femur was cut on shaved and disinfected skin. The sciatic nerve was exposed from underneath the muscle layer and isolated gently from the surrounding connective tissue, using curved and blunt forceps. The tibial and common peroneal nerves were first tightly ligated with double knot of 6-0 silk suture, proximally and immediately distal to the sciatic bifurcation. Thereafter, the nerves which run as a pair as physically attached to each other were cut at sites close to the ligatures, thereby removing a length of approximately 0.5 mm of the nerves, necessary to avoid the formation of any re-connection to the nerves. This procedure led to complete denervation of areas of tibial and peroneal innervation in the plantar paw, while neuropathy was developed upon the sural territories. Special care was taken not to manipulate the sural nerve, which thus was left intact. The muscle layers and skin were sutured, and animals were allowed to recover. 0.03 mg/kg buprenorphine SC was administered on postoperative days 1-2, every 12 hours, starting from the evening of Day 0. Rehydration with 4 ml of sterile saline IP was provided directly after the surgery, continuing twice a day for 7 days. The sural nerve innervates the lateral longitudinal third of the plantar paw and therefore, mechanical sensitivity was assessed in this area.
The selection of animals was performed on day 13 post-operation before animals were placed in their experimental groups. Animals with a pain threshold of <4 grams for an operated leg following Von Frey testing were included in the study. To form homogenous treatment groups, all the selected animals were grouped using a random sampling method on study day 13, to form groups with similar pain threshold mean. For blinding purposes, the researcher who dosed the animals with test items was different than the researcher who conducted the VF tests. […]

[8] = target: T1, hTRPV1 (Homo sapiens, UniProt Q8NER1); assay: hTRPV1 dual activity electrophysiology, CHO cells co-expressing hKv7.2/3 and hTRPV1; assay type: cell-based; conditions: Dual hTRPV1 / Dual Expressing CHO, CAP IC50, Kv7.2/3 co-expressed and activated, capsaicin
T1 construct: CDS of NM_080704.4, inserted into the multiple cloning site of pcDNA3.1(+); host or cells: CHO/hKv7.2/3
T1 sequence (Q8NER1 whole entry): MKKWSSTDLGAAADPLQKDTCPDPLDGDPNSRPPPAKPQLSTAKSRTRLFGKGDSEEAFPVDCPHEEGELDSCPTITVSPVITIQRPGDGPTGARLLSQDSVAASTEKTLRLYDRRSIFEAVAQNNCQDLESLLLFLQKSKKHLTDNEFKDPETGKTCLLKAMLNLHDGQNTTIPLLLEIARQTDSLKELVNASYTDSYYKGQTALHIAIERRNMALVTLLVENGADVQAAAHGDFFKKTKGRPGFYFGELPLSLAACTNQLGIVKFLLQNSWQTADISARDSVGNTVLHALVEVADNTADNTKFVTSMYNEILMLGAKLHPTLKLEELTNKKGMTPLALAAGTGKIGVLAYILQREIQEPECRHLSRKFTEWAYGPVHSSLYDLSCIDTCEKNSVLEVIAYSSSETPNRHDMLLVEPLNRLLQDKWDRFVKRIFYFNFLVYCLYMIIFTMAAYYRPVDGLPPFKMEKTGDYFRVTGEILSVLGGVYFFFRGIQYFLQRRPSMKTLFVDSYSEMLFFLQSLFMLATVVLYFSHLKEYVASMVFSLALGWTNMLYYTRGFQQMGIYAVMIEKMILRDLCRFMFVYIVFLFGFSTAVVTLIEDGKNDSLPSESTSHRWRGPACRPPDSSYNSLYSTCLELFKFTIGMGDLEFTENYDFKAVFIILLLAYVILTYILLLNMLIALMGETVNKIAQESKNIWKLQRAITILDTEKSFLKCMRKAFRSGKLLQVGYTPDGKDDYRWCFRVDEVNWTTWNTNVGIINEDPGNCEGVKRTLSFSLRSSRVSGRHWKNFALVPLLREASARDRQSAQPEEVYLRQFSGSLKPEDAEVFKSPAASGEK
Description: Cell culture and DNA transfection: CHO/hKv7.2/3 cells were transfected with hTRPV1 DNA constructs (CDS of NM_080704.4, inserted into the multiple cloning site of pcDNA3.1(+) between the Hind III and BamH I restriction site, Genscript). For CHO transfection, 1×10^6 cells were suspended in a reaction mix (Amaxa™ 4D-Nucleofector™-LONZA) containing 5 μg of hTRPV1 DNA and 0.5 μg of GFP DNA (for cells selection) in a cuvette.
The cells were transformed (Amaxa, DT-133 program for CHO transfection with p-3 Kit) and recovered for 10 minutes at RT in the hood. Then cells were re-suspended in a 10 mL antibiotic (Ab)-free medium suspension and were plated on Gelatin or PLL-coated cover glass in different cell densities. On the next morning, the medium was changed to full medium containing the CHO/hKv7.2/3 cell line selection antibiotics.
Extracellular (Bath) solution: The solution was composed of (in mM): NaCl, 140; KCl, 4; CaCl2, 1.8; MgCl2, 1.2; Glucose, 11; HEPES, 5.5. pH was adjusted to 7.3 with NaOH. Osmolarity was adjusted to 310 mOsm with Sucrose.
Intracellular (Pipette) solution: Pipettes were pulled from borosilicate glass (Warner Instrument Corp, USA) with a resistance of 3-7 MΩ and were filled with internal solution composed of (in mM): KCl, 130; MgCl2, 1; K ATP, 5; EGTA, 5; HEPES, 10. pH was adjusted to 7.3 with KOH. Osmolarity was adjusted to 290 mOsm with Sucrose.
A programmable valve-linked pressurized perfusion system was used for local application of compounds nearby the cell recorded in a consistent flow rate of 2-3 mL/minute. Series resistance was corrected and data were sampled at 5 kHz and low pass filtered at 2.4 kHz using MultiClamp 700B amplifier with pCLAMP11 software (Molecular Devices, USA).
At least 48 hours following cell transfection and plating, cells were recorded to assess the TRPV1 dual activity. Membrane potential was held at −90 mV. To measure the inhibitory effects of the tested compounds on hTRPV1 dual activity the following protocol was performed:
Cells were perfused with vehicle-only containing bath solution. After 30 seconds, a single −40 mV 1.5 second step was applied for Kv7.2/3 activation and 30 seconds later capsaicin (1 μM) was applied for 6 seconds to activate the TRPV1.
Cells perfusion was changed to a compound-containing bath solution, and after 2 minutes and 30 seconds of compound application, a single −40 mV 1.5 second step was applied for Kv7.2/3 activation and 30 seconds later capsaicin (1 μM) was applied for 6 seconds to activate the TRPV1.
Cells perfusion was thereafter changed back to vehicle only-containing bath solution. After 30 seconds, a single −40 mV 1.5 step was applied for Kv7.2/3 activation and 30 seconds later capsaicin (1 μM) was applied for 6 seconds to activate the TRPV1 followed by a capsaicin wash out.
The drug current response, when capsaicin was injected following 3 minutes of pre-incubation with the test compound, was divided by the averaged control currents, induced without compound, before compound incubation and following its washout, to evaluate the drug/control response.

SMILES	logD [1]	HLM and/or Rat PK clearance rates compared to compound 661 [2]	half-life at 1 µM [2]	efflux ratio at 2 h, 2 µM [3]	Human Hepatocytes MetID (glutathione conjugation) [4]	Micronucleus response Absolute MEC [5]	CC50 at 3 h [6]	Reversal of PWT [7]	IC50 [8]
O=C(Cc1cc(-n2cc(Cl)c3cc(Cl)cc(Cl)c32)cnn1)N[C@@H]1COC[C@H]1O [Compound 830]	3.2	improved HLM and/or Rat PK clearance rates compared to compound 661	58.1 min	84	did not indicate the presence of glutathione conjugation	–	–	–	–
O=P1(N(CCCl)CCCl)NCCCO1 (centres unmarked) [Cyclophosphamide, reference compound]	–	–	–	–	–	>400 µM	41.4 µM	–	–
CC(C)C[C@H](CN)CC(=O)O [Pregabalin, reference compound]	–	–	–	–	–	–	–	61% and 50%	–
O=C(Cc1cc(-n2cc(Cl)c3cc(Cl)cc(Cl)c32)ncn1)N[C@@H]1COC[C@H]1O [Compound 840]	3.63	improved HLM and/or Rat PK clearance rates compared to compound 661	52 min	5.4	did not indicate the presence of glutathione conjugation and None	–	–	–	0.479 µM
